Publication PMC5291322, “Development of Cell‐Permeable, Non‐Helical Constrained Peptides to Target a Key Protein–Protein Interaction in Ovarian Cancer” (Angewandte Chemie (International Ed. in English), 2016)
Non-standard residues stand in square brackets, D forms with d. Residues, ends and D or L forms follow the SMILES beside them. *: point of attachment. 5TAMRA = CN(C)c1ccc2c(c1)Oc1cc(N(C)C)ccc1C21OC(=O)c2cc(C(=O)*)ccc21; Dap(N3) = [N-]=[N+]=NC[C@H](N)C(=O)O; Aha = [N-]=[N+]=NCC[C@H](N)C(=O)O; Ahx = NCCCCCC(=O)O

Experiments:
[1] = biological target: T1, mImportin α1 ΔIBB (Mus musculus, UniProt P52293); test: Direct fluorescence polarisation (FP) binding assay; details: 60 nM TAMRA-labelled peptide, 15-point 2.0-fold serial dilutions of mImportin α1 ΔIBB, 20 mM HEPES pH 8, 200 mM NaCl, 15 min at room temperature, ex 540/em 590 nm, one-site model, triplicates, read-out: Kd, direct FP assay binding affinity
T1 construct: made in house; host or cells: E. coli BL21 (DE3) CodonPlus-RIL
Experimental: The unconstrained peptides Pep1 and Pep2, as well as four constrained peptides, were synthesized. Their binding affinities for mImportin α1 ΔIBB were evaluated in fluorescence polarization assays (Figure 5 C). […]
Direct Fluorescence Polarisation Assay
Dissociation constants (Kd) for the interaction of TAMRA-5-labelled stapled peptides with mImportin α1 ΔIBB were determined by direct fluorescence polarisation (FP) measurement. TAMRA-5 belongs to the family of rhodamine dyes and has been used extensively for the study of PPIs and DNA-protein interactions by FP assays.[31-32] The mImportin α1 ΔIBB isoform was used since it is well characterised and has been used previously.[33] A one-site binding model was assumed with mImportin α1. mImportin α1 ΔIBB protein was purified in FP buffer (20 mM HEPES (pH 8), 200 mM NaCl) and 1 mM stock solutions of peptides were made up in FP buffer with 3 % v/v DMSO. Accurate mImportin α1 ΔIBB and stapled peptide concentrations were determined by amino acid analysis (PNAC facilities, Department of Biochemistry, University of Cambridge). 15-point dose-response curves were constructed using 2.0-fold serial dilutions of mImportin α1 ΔIBB in a mixture with a final concentration of 60 nM TAMRA-labelled peptide. 20 μL reaction volumes were pipetted into […] black polystyrene assay plates (Corning 384 Well Low Flange Black Flat

[2] = tested on: JHOC9 cells; test: Cell permeability assay, live-cell confocal fluorescence microscopy; assay type: cell-based; details: 10 μM TAMRA-labelled peptide in medium, 2 h incubation, Hoechst 33342 in the final 30 min, PBS wash, TAMRA fluorescence read-out, qualitative
Description: Live‐cell fluorescence microscopy studies were undertaken to assess the cell permeability of the synthesized TAMRA‐labelled linear and constrained peptides (Figure 7).
Figure 7 Cell‐permeability studies for the linear and constrained peptides using JHOC9 cells. Images were taken on a Leica tandem confocal microscope using a 40 X objective.
HEK293T cells were cultivated in Dulbecco’s Modified Eagle medium (DMEM) (1X) supplemented with 5 % foetal bovine serum (FBS) (Invitrogen) and 0.5 % penicillin/streptomycin (P/S). CCC cell lines PEO1, JHOC5, JHOC7, JHOC9, OVISE, SKOV3 and Normal Ovarian Surface Epithelial (IOSE) cells were grown in RPMI 1640 medium (1X) supplemented with 10 % FBS and 1 % P/S. All cell lines were maintained at 37 °C in 5 % CO2 and were mycoplasma tested on a regular basis (Biorepository Core, CRUK CI, Cambridge). Cell counts were conducted using the Vi-CELL Cell Viability Analyzer. […]
Cell permeability assay and confocal microscopy
Cells were grown in chambered coverslips (μ–Slide 8 Well ibiTreat, Ibidi) for live-cell imaging. When the desired degree of confluency was reached, the medium was replaced with 10 μM solutions of constrained peptides in medium. For live-cell imaging, cells were incubated with the constrained peptide solutions for 2 h and during the final 30 min, Hoechst stain 33342 (1 μM, Thermo Fisher Scientific) was added. Cells were washed with PBS before live-cell imaging. Fresh medium was added and cells were imaged live using a Leica Tandem confocal microscope. Images were generated as a maximum intensity projection of five z-stacked […]
Aldrich, Mission RNAi, TRC2-pLKO-puro Vector) were used. All plasmids were confirmed by restriction digest and agarose gel electrophoresis.
For each transfection sample 16 μg transfer vector, 10.4 μg pMDL/pRRE, 4 μg pRSV-Rev and 5.6 μg pVSV-G were used. Lentiviruses were produced in the HEK293T packaging cell line. The day before transfection, 16 x 10^6 HEK293T cells were plated in […] (Corning) using Opti-MEM reduced-serum medium (30 mL, 1 X, Invitrogen) so that cells were 90–95 % confluent on the day of transfection. After 24 h the medium was removed and replaced with DMEM growth medium (16 mL, Invitrogen) containing serum. For each transfection sample DNA-Lipofectamine complexes were prepared as follows: In a sterile 15 mL tube, 16 μg transfer vector, 10.4 μg pMDL/pRRE, 4 μg pRSV-REV and 5.6 μg pVSV-G were diluted in Opti-MEM medium (5 mL). In a separate sterile 15 mL tube, Lipofectamine 2000 (115 μL, Life Technologies) was diluted in Opti-MEM medium (5 mL). Both solutions were incubated for 5 min at room temperature and then combined.
Incubation for 20 min at room temperature allowed DNA-Lipofectamine complexes to form, which were then added dropwise to each plate of HEK293T cells. […]

Row | Kd [1] [µM] | cell permeability [2] | SMILES
1 | 4.54 | retained their cell permeability | CSCC[C@@H]1NC(=O)[C@H](CCCCN)NC(=O)[C@H](CCCCN)NC(=O)[C@@H](NC(=O)[C@@H](NC(=O)CCCCCNC(=O)c2ccc3c(c2)C(=O)OC32c3ccc(N(C)C)cc3Oc3cc(N(C)C)ccc32)[C@@H](C)O)CCn2cc(nn2)CNC(=O)NCc2cn(nn2)CC[C@@H](C(=O)N[C@@H](CCCNC(=N)N)C(N)=O)NC(=O)[C@H](CCCNC(=N)N)NC(=O)[C@H](CCCNC(=N)N)NC1=O [Pep2A]
2 | 95.9 ± 27.3 |  | CSCC[C@@H]1NC(=O)[C@H](CCCCN)NC(=O)[C@H](CCCCN)NC(=O)[C@@H](NC(=O)[C@@H](NC(=O)CCCCCNC(=O)c2ccc3c(c2)C(=O)OC32c3ccc(N(C)C)cc3Oc3cc(N(C)C)ccc32)[C@@H](C)O)Cn2cc(nn2)CNC(=O)NCc2cn(nn2)C[C@@H](C(=O)N[C@@H](CCCNC(=N)N)C(N)=O)NC(=O)[C@H](CCCNC(=N)N)NC(=O)[C@H](CCCNC(=N)N)NC1=O [Pep1A]
3 | 48.2 ± 4.88 | retained their cell permeability | CSCC[C@@H]1NC(=O)[C@H](CCCCN)NC(=O)[C@H](CCCCN)NC(=O)[C@@H](NC(=O)[C@@H](NC(=O)CCCCCNC(=O)c2ccc3c(c2)C(=O)OC32c3ccc(N(C)C)cc3Oc3cc(N(C)C)ccc32)[C@@H](C)O)Cn2cc(nn2)CCNC(=O)NCCc2cn(nn2)C[C@@H](C(=O)N[C@@H](CCCNC(=N)N)C(N)=O)NC(=O)[C@H](CCCNC(=N)N)NC(=O)[C@H](CCCNC(=N)N)NC1=O [Pep1B]
4 | 2.06 ± 0.07 | good cell permeability | CSCC[C@H](NC(=O)[C@H](CCCCN)NC(=O)[C@H](CCCCN)NC(=O)[C@H](CN=[N+]=[N-])NC(=O)[C@@H](NC(=O)CCCCCNC(=O)c1ccc2c(c1)C(=O)OC21c2ccc(N(C)C)cc2Oc2cc(N(C)C)ccc21)[C@@H](C)O)C(=O)N[C@@H](CCCNC(=N)N)C(=O)N[C@@H](CCCNC(=N)N)C(=O)N[C@@H](CN=[N+]=[N-])C(=O)N[C@@H](CCCNC(=N)N)C(N)=O [Pep1] ({5TAMRA-Ahx}-T[Dap(N3)]KKMRR[Dap(N3)]R-NH2)
5 | 6.84 ± 0.26 | good cell permeability | CSCC[C@H](NC(=O)[C@H](CCCCN)NC(=O)[C@H](CCCCN)NC(=O)[C@H](CCN=[N+]=[N-])NC(=O)[C@@H](NC(=O)CCCCCNC(=O)c1ccc2c(c1)C(=O)OC21c2ccc(N(C)C)cc2Oc2cc(N(C)C)ccc21)[C@@H](C)O)C(=O)N[C@@H](CCCNC(=N)N)C(=O)N[C@@H](CCCNC(=N)N)C(=O)N[C@@H](CCN=[N+]=[N-])C(=O)N[C@@H](CCCNC(=N)N)C(N)=O [Pep2] ({5TAMRA-Ahx}-T[Aha]KKMRR[Aha]R-NH2)
6 | 55.9 ± 2.43 |  | CSCC[C@@H]1NC(=O)[C@H](CCCCN)NC(=O)[C@H](CCCCN)NC(=O)[C@@H](NC(=O)[C@@H](NC(=O)CCCCCNC(=O)c2ccc3c(c2)C(=O)OC32c3ccc(N(C)C)cc3Oc3cc(N(C)C)ccc32)[C@@H](C)O)Cn2cc(nn2)CCCNC(=O)NCCCc2cn(nn2)C[C@@H](C(=O)N[C@@H](CCCNC(=N)N)C(N)=O)NC(=O)[C@H](CCCNC(=N)N)NC(=O)[C@H](CCCNC(=N)N)NC1=O [Pep1C]

Row | SMILES | Kd [1] [µM] | cell permeability [2]
7 | CN(C)c1ccc2c(-c3ccc(C(=O)O)cc3C(=O)[O-])c3ccc(N(C)C)cc3[o+]c2c1 [TAMRA-5, 5-CARBOXYTETRAMETHYLRHODAMINE, reference compound] | ~122 | 
